In US6774143B1, “Method for treating cells resistant to antineoplastic agents” (Novartis AG, priority 2003, dated 2004):
Converted amounts (≈) assume the structure as drawn. Where two headings read alike, the source gives them in different places.

Legend:
1A9 cells = assay: In vitro cytotoxicity assay (MTT); type: cell-based; details: Homo sapiens, 1A9, 72 h, 1A9 cells, 72 hours
Procedure: (§1) 1A9 and 1A9PTX22 cells are plated in 96-well plates at 5×10^4 cells/well, plced in a tissue culture incubator and allowed to attach overnight. The next morning, the number of viable cells in the “time 0” plate (3 wells for each cell line) is determined using an MTT assay (Alley M C, et al., Cancer Res. 1988, 48:589-601).
(§2) At the same time drugs are added in serial, 10-fold dilutions, to the experimental plates. Corresponding vehicles are added to control plates. Experimental and control plates are then incubated in the tissue culture incubator for 72 hours. After the incubation the number of viable cells is determined in each plate using the MTT assay. IC50s (defined as a concentration of a given compound causing 50% inhibition of cell growth) are determined by comparing cell growth in the drug-treated plate (T−T0) to the cell growth in the corresponding control plate (C−T0). For each experiment results are calculated using average numbers from two sets of plates.
(§3) Discodermolide is isolated from the sponge Discodermia dissoluta using the method of Gunasekera SP (supra). Multiple batches of compound of similar purity (all>95% pure, as determined by mass spectrometry, and nuclear magnetic resonance analysis) are used throughout the various studies. For the in vitro cytotoxicity assays all compounds are dissolved in DMSO and are added to the plates with cells to obtain desired concentrations. […] Paclitaxel is purchased from Sigma/Aldrich, (St. Louis, Mo.). For the in vivo hollow fiber assay, solid discodermolide is dissolved in pure ethanol to create a stock solution which is diluted just before dosing with Cremophor EL and D5W to a final concentration of 16.7% Cremophor EL, 8.3% ethanol and 75% D5W. The compound is administered to mice as a single, 15 mg/kg iv injection. Positive control animals receive clinical formulations of paclitaxel (TAXOL) diluted 4-fold with D5W (12.5% Cremophor El, 12.5% ethanol and 75% D5W final concentrations) and administered iv, at 15 mg/kg, once daily for five consecutive days. Vehicle controls are administered according to the corresponding drug schedules.

[1] = system: 1A9PTX22 cells (β-tubulin mutation); assay: In vitro cytotoxicity assay (MTT); type: cell-based, human
Procedure: as §1, §2, §3

Raf-1 = assay: Western blot, Raf-1 phosphorylation; type: cell-based, human
Procedure: Cells are plated at a density of 1.5×10^6 cells per 100 mm plate. The next day cells are treated with vehicle control (0.1% DMSO) or test compound for 24 h. Cells are harvested by washing monolayers twice with PBS, then lysing with 300 ul of lysis buffer[20 mM Tris (pH 8.0), […], 100 mM NaCl, 0.5% NP40, 0.0125% DOC, 2.5% glycerol, 1 mM vanadate, 25 mM sodium fluoride and protease inhibitor cocktail (1:500 dilution, Sigma)]. Lysates were spun at 12,000× g and the supernatant transferred to a new tube. Protein concentration of the lysates is determined using BCA protein assay Reagent (Pierce). Samples (75 μg) are resolved by SDS-PAGE on a 7.5% or 14% tris-glycine gel for Raf-1 and Bcl-xL, respectively, and transferred to nitrocellulose. Immunodetection is performed as described by Amersham Vistra Fluorescence Western blotting Kit directions with the following modifications: the membrane is blocked with 5% milk (Carnation Non-Fat Dry Milk) in buffer containing 20 mM Tris-HCl (pH=7.4), 100 mM NaCl, and 0.2% Tween 20 (TBST) overnight and is subsequently incubated for 2 h with primary antibody (Santa Cruz C-12 for Raf-1 and Santa Cruz H-62 for Bcl-xL), followed by fluorescein-linked anti-rabbit Ig in 5% milk and anti-fluorescein alkaline phosphatase conjugate in TBST at 1:500 and 1:2000 dilutions, respectively. A Storm 860 (Molecular Dynamics) is used to detect fluorescent product according to the manufacturer's instructions.

[2] = MDA-MB-435 cells, 24 hour treatment

SMILES	IC50 (1A9 cells; first experiment) [ng/mL]	IC50 (1A9 cells; second experiment) [ng/mL]	IC50 ([1]; 1A9PTX22 cells, 72 hours, second experiment) [ng/mL]	IC50 ([1]; Homo sapiens, 1A9/ptx-22, 72 h) [ng/mL]	Raf-1 phosphorylation (Raf-1; 1A9 parental cells)	Raf-1 phosphorylation (Raf-1; A549 cells, 24 hour treatment)	Raf-1 phosphorylation (Raf-1; [2])	Raf-1 phosphorylation (Raf-1; PTX-22 cells)	IC50 (1A9 cells; first experiment, read-out: IC50) [ng/mL]	IC50 (1A9 cells; second experiment, read-out: IC50) [ng/mL]	IC50 ([1]; Homo sapiens, 1A9/ptx-22, 72 h, 1A9PTX22 cells, 72 hours, first experiment, read-out: IC50) [ng/mL]	IC50 ([1]; Homo sapiens, 1A9/ptx-22, 72 h, 1A9PTX22 cells, 72 hours, second experiment, read-out: IC50) [ng/mL]	fold resistance of 1A9PTX22 versus parental 1A9 ([1]; from IC50s of the two in vitro experiments) [fold]
C=C/C=C\[C@H](C)[C@H](OC(N)=O)[C@@H](C)[C@H](O)[C@@H](C)C/C(C)=C\[C@H](C)[C@@H](O)[C@@H](C)/C=C\[C@@H](O)C[C@@H]1OC(=O)[C@H](C)[C@@H](O)[C@H]1C [discodermolide, (+)-Discodermolide]	6 (≈ 10.1 nM)	3 (≈ 5.05 nM)	3 (≈ 5.05 nM)	3 (≈ 5.05 nM)	phosphorylated	phosphorylated	phosphorylated	phosphorylated	–	–	–	–	–
CC(=O)O[C@H]1C(=O)[C@@]2(C)[C@H]([C@H](OC(=O)c3ccccc3)[C@]3(O)C[C@H](OC(=O)[C@H](O)[C@@H](NC(=O)c4ccccc4)c4ccccc4)C(C)=C1C3(C)C)[C@]1(OC(C)=O)CO[C@@H]1C[C@@H]2O [paclitaxel, reference compound]	–	–	–	–	phosphorylated	phosphorylated	phosphorylated	not observed	0.8 (≈ 0.937 nM)	0.4 (≈ 0.468 nM)	15 (≈ 17.6 nM)	9 (≈ 10.5 nM)	20
